According to DBAASP:
Converted amounts (≈) assume the structure as drawn. “And” between values parts separate entries of the source, which are not always exact repeats. Equal entries are not always repeated.

Columns and labels:
Assay in all cases: ≥ marks a high value that may be exact or a test limit, other limits are often not marked, values filed in µg/mL are converted to µM
[1] = tested on: Pseudomonas aeruginosa ATCC 9027
[2] = tested on: Escherichia coli ATCC 8739
[3] = tested on: Staphylococcus aureus ATCC 6538
[4] = tested on: Escherichia coli ATCC 25922
[5] = tested on: Micrococcus luteus ATCC 10240
[6] = tested on: Bacillus subtilis ATCC 6633
[7] = tested on: Staphylococcus aureus ATCC 6538P
[8] = tested on: Pseudomonas aeruginosa ATCC 27853
[9] = tested on: Shigella dysenteriae ATCC 9752
[10] = tested on: Staphylococcus epidermidis ATCC 12228
[11] = tested on: Salmonella enterica subsp. enterica serovar Typhimurium ATCC 14028
[12] = tested on: Klebsiella pneumoniae ATCC 10031
[13] = tested on: Bacillus subtilis var. niger ATCC 9372
[14] = tested on: Bacillus anthracis Sterne 34F2
Escherichia coli K91BK = tested on: Escherichia coli K91BK
[15] = tested on: Salmonella enterica subsp. enterica serovar Enteritidis
[16] = tested on: Staphylococcus aureus ATCC 29213
Salmonella sp. = tested on: Salmonella sp.
[17] = tested on: Staphylococcus aureus ATCC 43300
Yersinia enterocolitica = tested on: Yersinia enterocolitica
Escherichia coli = tested on: Escherichia coli
[18] = tested on: Staphylococcus aureus ATCC 25923
[19] = tested on: Pseudomonas aeruginosa Ps4

SMILES | MIC [4] [µM] | MIC [15] [µM] | MIC [16] [µM] | MIC (Salmonella sp.) [µM] | MIC [17] [µM] | MIC (Yersinia enterocolitica) [µM] | MIC (Escherichia coli) [µM] | also measured
NCCCC[C@H](NC(=O)[C@H](Cc1c[nH]c2ccccc12)NC(=O)[C@H](Cc1ccccc1)NC(=O)[C@H](Cc1c[nH]c2ccccc12)NC(=O)[C@@H](N)CS)C(=O)N[C@@H](Cc1c[nH]c2ccccc12)C(=O)N[C@@H](Cc1c[nH]c2ccccc12)C(=O)N[C@@H](CCCN=C(N)N)C(=O)N[C@@H](CCCN=C(N)N)C(=O)N[C@@H](CCCN=C(N)N)C(=O)N[C@@H](CCCN=C(N)N)C(=O)N[C@@H](CCCN=C(N)N)C(N)=O [CWFWKWWRRRRR] |  |  |  |  |  |  |  | MIC [1]: 5.5 µM and 8.7 µM; MIC [2]: 5.2 µM and 7.3 µM; MIC [3]: 2.5 µM and 4.7 µM
CC(C)C[C@H](NC(=O)[C@H](Cc1c[nH]c2ccccc12)NC(=O)[C@H](CCCCN)NC(=O)[C@H](CC(C)C)NC(=O)[C@@H](N)Cc1ccccc1)C(=O)N[C@@H](Cc1ccccc1)C(=O)N[C@@H](CCCCN)C(=O)N[C@@H](Cc1c[nH]c2ccccc12)C(=O)N[C@@H](C)C(=O)N[C@@H](CCCCN)C(=O)N[C@@H](CCCCN)C(N)=O [FLKWLFKWAKK] | 8.36 (≈ 12.5 µg/mL) |  |  |  |  |  |  | MIC [5]: 2.07 µM (≈ 3.1 µg/mL); MIC [6]: 2.07 µM (≈ 3.1 µg/mL); MIC [7]: 4.21 µM (≈ 6.3 µg/mL); MIC [8]: 8.36 µM (≈ 12.5 µg/mL); MIC [9]: 16.7 µM (≈ 25 µg/mL); MIC [10]: 4.21 µM (≈ 6.3 µg/mL); MIC [11]: 33.4 µM (≈ 50 µg/mL); MIC [12]: 8.36 µM (≈ 12.5 µg/mL)
CC[C@H](C)[C@H](NC(=O)[C@H](C)NC(=O)[C@H](CCCCN)NC(=O)[C@H](CCCN=C(N)N)NC(=O)CNC(=O)[C@H](Cc1ccccc1)NC(=O)[C@H](CCCCN)NC(=O)[C@H](CCCCN)NC(=O)[C@@H](NC(=O)[C@H](CC(C)C)NC(=O)[C@H](CCCCN)NC(=O)CNC(=O)[C@H](Cc1ccccc1)NC(=O)[C@H](CC(C)C)NC(=O)CNC(C)=O)[C@@H](C)CC)C(=O)N[C@@H](CO)C(=O)N[C@@H](Cc1ccc(O)cc1)C(=O)N[C@@H](C)C(=O)N[C@H](C(=O)N[C@@H](CCCCN)C(=O)N[C@@H](CCCCN)C(=O)N[C@@H](C)C(=O)N[C@@H](CCCN=C(N)N)C(=O)NCC(=O)N[C@@H](CCCCN)C(=O)N[C@@H](Cc1cnc[nH]1)C(N)=O)C(C)C [GLFGKLIKKFGRKAISYAVKKARGKH] |  |  |  |  |  |  |  | MIC [13]: 2.37 µM (≈ 6.98 µg/mL); MIC [14]: 6.25 µM (≈ 18.4 µg/mL); MIC (Escherichia coli K91BK): ≥ 100 µM
CC(C)C[C@H](NC(=O)[C@H](CC(C)C)NC(=O)[C@H](Cc1c[nH]c2ccccc12)NC(=O)[C@H](CCCCN)NC(=O)[C@H](CC(C)C)NC(=O)[C@H](CC(C)C)NC(=O)[C@@H](N)CCCCN)C(=O)N[C@@H](CCCCN)C(N)=O [KLLKWLLK] | 96 (≈ 99.9 µg/mL) |  |  |  |  |  |  | MIC [5]: ≥ 96 µM; MIC [6]: ≥ 48 µM; MIC [7]: 24 µM (≈ 25 µg/mL); MIC [8]: 96 µM (≈ 99.9 µg/mL); MIC [9]: ≥ 192 µM; MIC [10]: 192 µM (≈ 200 µg/mL); MIC [11]: > 192 µM; MIC [12]: ≥ 96 µM
CC(=O)N[C@@H](CCCCN)C(=O)N[C@@H](Cc1c[nH]c2ccccc12)C(=O)N[C@@H](CCCCN)C(=O)N[C@@H](CCCCN)C(=O)N[C@@H](CC(C)C)C(=O)N[C@@H](CC(C)C)C(=O)N[C@@H](CCCCN)C(=O)N[C@@H](CCCCN)C(=O)N1CCC[C@H]1C(=O)N[C@@H](CC(C)C)C(=O)N[C@@H](CC(C)C)C(=O)N[C@@H](CCCCN)C(=O)N[C@@H](CCCCN)C(=O)N[C@@H](CC(C)C)C(=O)N[C@@H](CC(C)C)C(=O)N[C@@H](CCCCN)C(=O)N[C@@H](CCCCN)C(=O)N[C@@H](CC(C)C)C(N)=O [KWKKLLKKPLLKKLLKKL] |  |  |  |  |  |  |  | MIC [13]: 3.13 µM (≈ 7.16 µg/mL); MIC [14]: ≥ 100 µM; MIC (Escherichia coli K91BK): ≥ 100 µM
CSCC[C@H](NC(=O)[C@H](CCCN=C(N)N)NC(=O)[C@H](CCCN=C(N)N)NC(=O)[C@@H](N)CC(N)=O)C(=O)N[C@@H](CCCCN)C(=O)N[C@@H](Cc1c[nH]c2ccccc12)C(=O)N[C@@H](CCCCN)C(=O)N[C@@H](CCCCN)C(N)=O [NRRMKWKK] | > 50 | ≥ 50 | > 50 | ≥ 50 | > 50 | ≥ 50 | > 50 | MIC [8]: > 50 µM
CC[C@H](C)[C@H](NC(=O)[C@H](CCCCN)NC(=O)[C@H](CCCN=C(N)N)NC(=O)[C@H](CC(C)C)NC(=O)[C@@H](NC(=O)[C@H](CCCCN)NC(=O)CNC(=O)[C@H](CC(C)C)NC(=O)[C@@H](NC(=O)[C@H](CCCCN)NC(=O)[C@H](CC(N)=O)NC(=O)[C@H](CCCN=C(N)N)NC(=O)[C@H](C)NC(=O)[C@H](CCSC)NC(=O)[C@@H]1CCCN1)[C@@H](C)CC)[C@@H](C)CC)C(=O)N[C@@H](C)C(=O)N[C@@H](C)C(=O)N[C@@H](Cc1ccccc1)C(=O)N[C@@H](CCCCN)C(=O)O [PMARNKILGKILRKIAAFK] |  |  |  |  |  |  |  | MIC [18]: 29.5 µM (≈ 64 µg/mL); MIC [2]: 3.69 µM (≈ 8 µg/mL)
CC[C@H](C)[C@H](NC(=O)[C@H](CC(N)=O)NC(=O)[C@H](CCCN=C(N)N)NC(=O)[C@H](CCC(N)=O)NC(=O)[C@H](Cc1c[nH]c2ccccc12)NC(=O)[C@H](Cc1ccccc1)NC(=O)[C@@H](N)CCCN=C(N)N)C(=O)N[C@@H](CCCN=C(N)N)C(=O)N[C@@H](CCCCN)C(=O)N[C@@H](Cc1ccc(O)cc1)C(=O)N[C@@H](CCCN=C(N)N)C(N)=O [RFWQRNIRKYR] |  |  |  |  |  |  |  | MIC [19]: ≥ 154 µM
CC[C@H](C)[C@H](NC(=O)[C@H](CCC(N)=O)NC(=O)[C@@H](N)CCCN=C(N)N)C(=O)N[C@H](C(=O)N[C@@H](CCCN=C(N)N)C(=O)N[C@@H](CCCN=C(N)N)C(=O)N[C@@H](CCSC)C(=O)N[C@@H](Cc1c[nH]c2ccccc12)C(=O)N[C@@H](CCCN=C(N)N)C(N)=O)[C@@H](C)CC [RQIIRRMWR] | > 38 | ≥ 38 | > 38 | ≥ 38 | > 38 | ≥ 38 | 19 (≈ 25 µg/mL) | 
CC[C@H](C)[C@H](NC(=O)[C@H](CCCCN)NC(=O)[C@@H](NC(=O)[C@H](CCC(N)=O)NC(=O)[C@@H](N)CCCN=C(N)N)[C@@H](C)CC)C(=O)N[C@@H](CCCN=C(N)N)C(=O)N[C@@H](CCCN=C(N)N)C(=O)N[C@@H](CCSC)C(=O)N[C@@H](CCCCN)C(=O)N[C@@H](Cc1c[nH]c2ccccc12)C(=O)N[C@@H](CCCN=C(N)N)C(N)=O [RQIKIRRMKWR] | 7.96 (≈ 12.5 µg/mL) | 31.8 (≈ 50 µg/mL) | > 31.8 | 3.18 (≈ 5 µg/mL) | 31.8 (≈ 50 µg/mL) | 3.98 (≈ 6.25 µg/mL) | 3.56 (≈ 5.59 µg/mL) | 
CC[C@H](C)[C@H](NC(=O)[C@H](CCC(N)=O)NC(=O)[C@@H](N)CCCN=C(N)N)C(=O)N[C@@H](Cc1c[nH]c2ccccc12)C(=O)N[C@@H](Cc1c[nH]c2ccccc12)C(=O)N[C@@H](Cc1c[nH]c2ccccc12)C(=O)N[C@@H](Cc1c[nH]c2ccccc12)C(=O)N[C@@H](CCC(N)=O)C(=O)N[C@@H](CCCN=C(N)N)C(N)=O [RQIWWWWQR] | 4.33 (≈ 6.25 µg/mL) | 8.65 (≈ 12.5 µg/mL) | 34.6 (≈ 50 µg/mL) | 4.33 (≈ 6.25 µg/mL) | > 34.6 | 17.3 (≈ 25 µg/mL) | 4.33 (≈ 6.25 µg/mL) | 
CC[C@H](C)[C@H](NC(=O)[C@H](CCCCN)NC(=O)[C@@H](NC(=O)[C@H](CCCN=C(N)N)NC(=O)[C@H](CCCN=C(N)N)NC(=O)[C@H](CCSC)NC(=O)[C@H](CCCCN)NC(=O)[C@H](Cc1c[nH]c2ccccc12)NC(=O)[C@@H](N)CCCN=C(N)N)[C@@H](C)CC)C(=O)N[C@@H](CCC(N)=O)C(=O)N[C@@H](CCCN=C(N)N)C(N)=O [RWKMRRIKIQR] | > 31.8 | 31.8 (≈ 50 µg/mL) | > 31.8 | 31.8 (≈ 50 µg/mL) | > 31.8 | 31.8 (≈ 50 µg/mL) | > 31.8 | 
CC(=O)N[C@@H](Cc1c[nH]c2ccccc12)C(=O)N[C@@H](CCCN=C(N)N)C(=O)N[C@@H](CO)C(=O)N[C@@H](CC(C)C)C(=O)NCC(=O)N[C@@H](CCCN=C(N)N)C(=O)N[C@H](C(=O)N[C@@H](CC(C)C)C(=O)N[C@@H](CC(C)C)C(=O)N[C@@H](CCCN=C(N)N)C(=O)N[C@@H](CC(C)C)C(=O)N[C@@H](CO)C(=O)N[C@@H](Cc1cnc[nH]1)C(=O)N[C@@H](C)C(=O)N[C@@H](CC(C)C)C(=O)N[C@@H](CCCCN)C(=O)N1CCC[C@H]1C(=O)N[C@@H](CC(C)C)C(=O)N[C@@H](C)C(=O)N[C@@H](CCCN=C(N)N)C(=O)N[C@@H](CCCN=C(N)N)C(=O)N[C@@H](CO)C(=O)NCC(=O)N[C@@H](Cc1c[nH]c2ccccc12)C(N)=O)[C@@H](C)O [WRSLGRTLLRLSHALKPLARRSGW] |  |  |  |  |  |  |  | MIC [13]: 2.1 µM (≈ 6.03 µg/mL); MIC [14]: 7.87 µM (≈ 22.6 µg/mL); MIC (Escherichia coli K91BK): ≥ 100 µM
